Measured values from patent publication US10052320B2, “Substituted quinoxalines as FGFR kinase inhibitors” (ASTEX THERAPEUTICS LIMITED, priority 2011, dated 2018).
Read-outs that look alike come from different tables or passages of the source.

What was measured:
[1] = test system: Ba/F3-FGFR3-transfected cells in the presence of 10 ng/ml murine IL3; assay: Ba/F3-FGFR3 (plus IL3) cellular proliferation counterscreen, Alamar Blue; type: cell-based; conditions: Mus musculus
Outline: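 With or without 10 ng/ml murine IL3, transfected Ba/F3-FGFR3 cells in serum-containing RPMI-1640 receive compound for 24 h at 37 °C. Growth is then gauged by resazurin conversion over 4 h, read as relative fluorescence units.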

[2] = test system: Ba/F3-KDR-transfected cells in the presence of 10 ng/ml murine IL3; assay: Ba/F3-KDR (plus IL3) cellular proliferation counterscreen, Alamar Blue; type: cell-based; conditions: Mus musculus, plus 10 ng/ml murine IL3
Outline: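 Measured with and without 10 ng/ml murine IL3: Ba/F3-KDR cells treated 24 h with compound, then 4 h Alamar Blue, fluorescence read at 540/590 nm.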

[3] = test system: Ba/F3-Flt3-transfected cells in the presence of 10 ng/ml murine IL3; assay: Ba/F3-Flt3 (plus IL3) cellular proliferation counterscreen, Alamar Blue; type: cell-based; conditions: Mus musculus, read-out: BAF3-FLT3 (PLUS IL3) 96 well pIC50 (converted)
[4] = biological target: FGFR3 (h) (Homo sapiens, UniProt P22607); assay: FGFR3 (enzymatic assay), TR-FRET; type: biochemical; conditions: read-out: FGFR 3 pIC50 (converted)
Description: (§1) In a final reaction volume of 30 μL, FGFR3 (h) (40 ng/ml) was incubated with 50 mM HEPES pH 7.5, 6 mM MnCl2, 1 mM DTT, 0.1 mM Na3VO4, 0.01% Triton-X-100, 500 nM Btn-Flt3 and 25 μM ATP in the presence of compound (1% DMSO final). […] Time-Resolved Fluorescence Resonance Energy Transfer (TR-FRET) signal (ex340 nm. Em 620 nm, em 655 nm) was measured afterwards and results are expressed in RFU (Relative Fluorescence Units).

[5] = biological target: Ba/F3-FGFR1-transfected cells (Homo sapiens, UniProt P11362); assay: Ba/F3-FGFR1 (minus IL3) cellular proliferation assay, Alamar Blue; type: cell-based; conditions: for BAF3-FGFR 1 (MIN IL3) 96 well pIC50: minus IL3, 96 well; for BAF3-FGFR 1 (MIN IL3) 384 well pIC50: minus IL3, 384 well
Outline: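 Proliferation is estimated from Alamar Blue fluorescence after cells grow for one day with test compound in 10% FBS medium at 37 °C, with 4 h dye incubation before reading.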

[6] = biological target: FGFR1 (h) (Homo sapiens, UniProt P11362); assay: FGFR1 (enzymatic assay), TR-FRET; type: biochemical; conditions: read-out: FGFR 1 pIC50 (converted)
Description: as §1, with “FGFR1” for “FGFR3”, “(25” for “(40”, “5” for “25”

[7] = plus 10 ng/ml murine IL3, 384 well, read-out: BAF3-FGFR 3 (PLUS IL3) 384 well pIC50 (converted)
[8] = plus IL3, 96 well, read-out: BAF3-FGFR 3 (PLUS IL3) 96 well pIC50 (converted)
[9] = read-out: BAF3-KDR (PLUS IL3) 384 well pIC50 (converted)
[10] = read-out: BAF3-KDR (PLUS IL3) 96 well pIC50 (converted)

Sequence of FGFR3 (h) (P22607 23-806): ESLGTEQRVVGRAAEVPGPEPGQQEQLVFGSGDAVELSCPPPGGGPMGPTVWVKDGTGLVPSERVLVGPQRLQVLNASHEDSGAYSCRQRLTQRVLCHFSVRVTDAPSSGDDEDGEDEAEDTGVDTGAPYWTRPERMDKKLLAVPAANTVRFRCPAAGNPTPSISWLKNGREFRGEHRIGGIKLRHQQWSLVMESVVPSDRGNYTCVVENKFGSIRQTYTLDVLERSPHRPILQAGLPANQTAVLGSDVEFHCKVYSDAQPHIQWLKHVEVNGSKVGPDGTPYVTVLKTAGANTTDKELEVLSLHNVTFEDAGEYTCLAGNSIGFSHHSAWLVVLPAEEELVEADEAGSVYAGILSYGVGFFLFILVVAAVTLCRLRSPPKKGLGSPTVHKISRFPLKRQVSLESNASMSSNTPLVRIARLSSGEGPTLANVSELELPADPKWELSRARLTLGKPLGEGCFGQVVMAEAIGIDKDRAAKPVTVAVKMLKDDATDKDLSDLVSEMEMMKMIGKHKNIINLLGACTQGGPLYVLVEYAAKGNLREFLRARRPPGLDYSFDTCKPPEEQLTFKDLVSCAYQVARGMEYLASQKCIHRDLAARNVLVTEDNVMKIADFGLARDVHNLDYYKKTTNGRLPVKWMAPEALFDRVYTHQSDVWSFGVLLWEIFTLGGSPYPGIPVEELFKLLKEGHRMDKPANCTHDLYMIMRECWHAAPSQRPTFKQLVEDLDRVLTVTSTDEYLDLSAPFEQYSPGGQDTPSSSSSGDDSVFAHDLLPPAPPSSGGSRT
Sequence of Ba/F3-FGFR1-transfected cells (P11362 whole entry, change not shown): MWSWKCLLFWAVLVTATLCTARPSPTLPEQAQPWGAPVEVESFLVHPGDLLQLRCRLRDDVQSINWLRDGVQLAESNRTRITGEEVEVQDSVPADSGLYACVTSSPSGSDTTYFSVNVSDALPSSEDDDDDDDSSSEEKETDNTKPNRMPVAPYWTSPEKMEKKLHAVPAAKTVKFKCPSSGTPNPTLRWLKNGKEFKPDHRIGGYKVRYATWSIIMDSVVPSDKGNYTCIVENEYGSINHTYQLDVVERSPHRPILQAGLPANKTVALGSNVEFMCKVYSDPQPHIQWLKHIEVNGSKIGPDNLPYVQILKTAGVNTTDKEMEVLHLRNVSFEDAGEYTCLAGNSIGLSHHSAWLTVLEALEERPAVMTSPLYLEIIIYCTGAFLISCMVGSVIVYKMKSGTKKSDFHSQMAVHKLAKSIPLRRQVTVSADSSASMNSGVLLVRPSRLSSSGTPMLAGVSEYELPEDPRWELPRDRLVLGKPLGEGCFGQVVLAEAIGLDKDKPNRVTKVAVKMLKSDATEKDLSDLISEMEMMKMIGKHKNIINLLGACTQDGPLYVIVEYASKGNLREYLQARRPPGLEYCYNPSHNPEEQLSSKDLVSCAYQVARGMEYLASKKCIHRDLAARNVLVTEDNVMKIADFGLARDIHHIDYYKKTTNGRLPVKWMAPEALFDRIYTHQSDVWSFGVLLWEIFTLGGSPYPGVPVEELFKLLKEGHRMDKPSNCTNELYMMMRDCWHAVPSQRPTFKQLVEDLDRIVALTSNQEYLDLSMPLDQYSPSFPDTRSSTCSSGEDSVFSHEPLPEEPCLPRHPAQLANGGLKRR
Sequence of FGFR1 (h) (P11362 22-822): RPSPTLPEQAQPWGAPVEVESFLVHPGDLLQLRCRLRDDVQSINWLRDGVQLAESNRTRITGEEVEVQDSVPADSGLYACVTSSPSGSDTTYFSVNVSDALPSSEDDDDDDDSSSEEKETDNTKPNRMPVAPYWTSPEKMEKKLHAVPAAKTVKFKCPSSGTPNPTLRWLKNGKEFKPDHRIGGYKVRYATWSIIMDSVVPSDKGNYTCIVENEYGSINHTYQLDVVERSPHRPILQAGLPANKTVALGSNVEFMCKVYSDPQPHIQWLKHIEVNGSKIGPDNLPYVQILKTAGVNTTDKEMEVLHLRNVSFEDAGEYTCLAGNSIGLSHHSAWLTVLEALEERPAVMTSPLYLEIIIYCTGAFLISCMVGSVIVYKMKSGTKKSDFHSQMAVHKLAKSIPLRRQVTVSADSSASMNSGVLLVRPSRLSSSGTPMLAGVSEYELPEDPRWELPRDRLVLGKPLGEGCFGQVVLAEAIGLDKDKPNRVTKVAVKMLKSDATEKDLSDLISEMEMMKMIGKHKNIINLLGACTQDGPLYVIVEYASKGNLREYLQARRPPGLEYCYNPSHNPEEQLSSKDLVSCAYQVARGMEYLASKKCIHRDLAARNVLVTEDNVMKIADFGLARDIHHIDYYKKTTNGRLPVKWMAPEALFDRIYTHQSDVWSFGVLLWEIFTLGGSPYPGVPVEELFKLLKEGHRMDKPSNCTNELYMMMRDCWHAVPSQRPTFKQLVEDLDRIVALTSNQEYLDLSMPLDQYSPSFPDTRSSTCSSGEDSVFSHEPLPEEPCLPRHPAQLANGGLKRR

SMILES | IC50 [1, 7] [nM] | IC50 [1, 8] [nM] | IC50 [2, 9] [nM] | IC50 ([3]; plus 10 ng/ml murine IL3) [nM] | IC50 ([3]; plus IL3, 96 well) [nM] | IC50 [4] [nM] | BAF3-FGFR 1 (MIN IL3) 96 well pIC50 [5] | BAF3-FGFR 1 (MIN IL3) 384 well pIC50 [5] | IC50 [6] [nM] | IC50 [2, 10] [nM]
COc1cc(OC)cc(N(CC2CC2)c2ccc3ncc(-c4ccnn4C)nc3c2)c1 [Compound 18] | > 10000 | > 10000 | > 10000 | > 10000 |  |  |  |  |  | 
COc1cc(OC)cc(N(CC2CC2)c2ccc3ncc(-c4ccc5c(ccn5C)c4)nc3c2)c1 [Compound 20] |  |  |  |  | > 10000 |  |  |  |  | 
COc1cc(OC)cc(N(CC2CC2)c2ccc3ncc(-c4cn(C)cn4)nc3c2)c1 [Compound 21] |  |  |  | > 10000 |  |  |  |  |  | 
COc1cc(OC)cc(N(CC2CC2)c2ccc3ncc(C#Cc4ccncc4)nc3c2)c1 [Compound 23] |  |  |  | 5620 |  | 214 | 5.41 | 5.09 | 501 | 
COc1cc(OC)cc(N(CC2CC2)c2ccc3ncc(-c4cn(CCN5CCOCC5)nn4)nc3c2)c1 [Compound 24] |  |  |  | > 10000 |  | 9.55 | 5.42 | 5.39 | 20.4 | 
COc1cc(OC)cc(N(CC2CC2)c2ccc3ncc(-n4ccc(C)n4)nc3c2)c1 [Compound 31] |  |  |  | > 10000 |  | 339 | <5 | <5 | 933 | 
COc1cc(OC)cc(N(CC2CC2)c2ccc3ncc(-n4ccnc4C)nc3c2)c1 [Compound 32] |  |  |  | > 10000 |  | 479 | <5 | <5 | 417 | 
COc1cc(OC)cc(N(CC2CC2)c2ccc3ncc(-c4cc[nH]c4)nc3c2)c1 [Compound 36] |  |  |  | > 10000 |  |  |  |  |  | 
COc1cc(OC)cc(N(CC2CC2)c2ccc3ncc(-c4nnn[nH]4)nc3c2)c1 [Compound 41] |  |  |  | > 10000 |  | 64.6 | <5 | <5 | 57.5 | 
COc1cc(OC)cc(N(CC2CC2)c2ccc3ncc(-c4cnco4)nc3c2)c1 [Compound 55] |  |  |  | > 10000 |  | 30.9 | 5.37 | <5 | 37.2 | 
COc1cc(OC)cc(N(CC2CC2)c2ccc3ncc(-c4ccn(CCO)c4)nc3c2)c1 [Compound 56] | > 10000 | > 10000 | > 10000 | > 10000 |  |  |  |  |  | > 10000
COc1cc(OC)cc(N(CC2CC2)c2ccc3ncc(-c4ccn[nH]4)nc3c2)c1 [Compound 58] |  |  |  | > 10000 |  | 81.3 | <5 |  | 135 | 
COc1cc(OC)cc(N(CC2CC2)c2ccc3ncc(-c4nccn4C)nc3c2)c1 [Compound 60] |  |  |  | > 10000 |  | 955 | <5 | <5 | 575 | 
COc1cc(OC)cc(N(CC2CC2)c2ccc3ncc(Nc4cnn(C)c4)nc3c2)c1 [Compound 61] | > 10000 | 3980 | > 10000 | 6760 |  |  |  |  |  | 
COc1cc(OC)cc(N(CC2CC2)c2ccc3ncc(-n4nccc4C)nc3c2)c1 [Compound 62] |  |  |  | > 10000 |  | > 1000 | <5 | <5 | > 1000 | 
CCOC(=O)c1ncn(-c2cnc3ccc(N(CC4CC4)c4cc(OC)cc(OC)c4)cc3n2)c1C [Compound 65] |  |  |  | > 10000 |  | > 1000 | <5 | <5 | > 1000 | 
COc1cc(OC)cc(N(CC2CC2)c2ccc3ncc(-c4cn[nH]n4)nc3c2)c1 [Compound 69] |  |  |  | > 10000 |  | 61.7 | 5.22 | 5.01 | 79.4 | 

SMILES | IC50 [1, 7] [nM] | IC50 [1, 8] [nM] | IC50 [2, 9] [nM] | IC50 ([3]; plus 10 ng/ml murine IL3) [nM] | IC50 ([3]; plus IL3, 96 well) [nM] | IC50 [4] [nM] | BAF3-FGFR 1 (MIN IL3) 96 well pIC50 [5] | BAF3-FGFR 1 (MIN IL3) 384 well pIC50 [5] | IC50 [6] [nM] | IC50 [2, 10] [nM]
COc1cc(OC)cc(N(CC2CC2)c2ccc3ncc(-c4cnn(C)n4)nc3c2)c1 [Compound 70] | > 10000 | > 10000 | > 10000 | > 10000 |  |  |  |  |  | > 10000
COc1cc(OC)cc(N(CC2CC2)c2ccc3ncc(-c4cnnn4C)nc3c2)c1 [Compound 72] |  |  |  | > 10000 |  | 389 | 5.23 | 5.18 | 537 | 
COc1cc(OC)cc(N(CC2CC2)c2ccc3ncc(-c4ccn(C)c4)nc3c2)c1 [Compound 73] |  |  |  | > 10000 |  |  |  |  |  | 
COc1cc(OC)cc(N(CC2CC2)c2ccc3ncc(-c4nnn(C)n4)nc3c2)c1 [Compound 82] |  |  |  | > 10000 |  | 148 | 5.03 | <5 | 309 | 
COc1cc(OC)cc(N(CC2CC2)c2ccc3ncc(C(=O)NCCN4CCOCC4)nc3c2)c1 [Compound 96] |  |  |  | > 10000 |  | 550 |  | <5 | ~363 | 
COc1cc(OC)cc(N(CC2CC2)c2ccc3ncc(-c4nccs4)nc3c2)c1 [Compound 97] |  |  |  | > 10000 |  | 676 |  | <5 | 575 | 
COc1cc(OC)cc(N(CC2CC2)c2ccc3ncc(Nc4nccs4)nc3c2)c1 [Compound 98] |  |  |  | > 10000 |  | 191 |  | <5 | 437 | 
COc1cc(OC)cc(N(CC2CC2)c2ccc3ncc(C(=O)NCc4ccc(F)cc4)nc3c2)c1 [Compound 101] |  |  |  | > 10000 |  | > 1000 | <5 | <5 | > 1000 | 
COc1cc(OC)cc(N(CC2CC2)c2ccc3ncc(Nc4nncs4)nc3c2)c1 [Compound 102] |  |  |  | > 10000 |  | > 1000 | <5 | <5 | > 1000 | 
COc1cc(OC)cc(N(CC2CC2)c2ccc3ncc(-c4cccn4C)nc3c2)c1 [Compound 103] |  |  |  | > 10000 |  | ~1000 | <5 | <5 | > 1000 | 
CNc1ccc(-c2cnc3ccc(N(CCCO)c4cc(OC)cc(OC)c4)cc3n2)cn1 [Compound 116] | > 10000 |  | > 10000 |  |  | 3.24 |  | 5.9 | 7.24 | 
COc1cc(OC)cc(N(CCCO)c2ccc3ncc(-c4ccc(F)nc4)nc3c2)c1 [Compound 117] | > 10000 |  | > 10000 |  |  | 11.7 |  | 6.67 | 20.4 | 
COc1cc(OC)cc(N(CCO)c2ccc3ncc(-c4ccnc(C(=O)NCCCN)c4)nc3c2)c1 [Compound 123] | > 10000 |  | > 10000 |  |  | 14.5 |  | 5.22 | 18.6 | 
COc1cc(OC)cc(N(CCCO)c2ccc3ncc(-c4ccc(N5CCOCC5)nc4)nc3c2)c1 [Compound 124] | > 10000 |  | > 10000 |  |  | 3.39 |  | 6.24 | 6.92 | 
COc1cc(OC)cc(N(CCCNCC(F)(F)F)c2ccc3ncc(-c4ccc(N(C)C(=O)OC(C)(C)C)nc4)nc3c2)c1 [Compound 127] | > 10000 |  | > 10000 |  |  | 331 |  | <5 | 257 | 
COc1cc(OC)cc(N(CCCO)c2ccc3ncc(-c4ccnc(NC(=O)OC(C)(C)C)c4)nc3c2)c1 [Compound 128] | > 10000 |  | > 10000 |  |  | 33.9 |  | <5 | 182 | 
